# Test results: patent publication US20110262355A1, “COMPOSITIONS COMPRISING ENZYME-CLEAVABLE OPIOID PRODRUGS AND INHIBITORS THEREOF” (priority 2010, published 2011)
# Where two headings read alike, the source gives them in different places.
# Columns and labels:
# human μ-opioid receptor [1] = biological target: T1, human μ-opioid receptor (Homo sapiens, UniProt P35372); assay: In vitro human μ-opioid receptor binding assay
# [2] = Pharmacokinetics of oxycodone prodrug Compound KC-2 or oxycodone following PO administration to rats; format: in vivo; conditions: rat, KC-2 20 mg/kg vs oxycodone 10 mg/kg
# [3] = biological target: T2, trypsin from bovine pancreas (Bos taurus, UniProt P00760); assay: In vitro trypsin-mediated release of oxycodone from Compound KC-2, without or with Compound 109; format: biochemical; design: purchased Sigma-Aldrich T8003; host or cells: bovine pancreas; conditions: 0.761 mM KC-2; 0.0228 mg/mL trypsin; 37° C.; no trypsin inhibitor
# T2 sequence (P00760 24-246): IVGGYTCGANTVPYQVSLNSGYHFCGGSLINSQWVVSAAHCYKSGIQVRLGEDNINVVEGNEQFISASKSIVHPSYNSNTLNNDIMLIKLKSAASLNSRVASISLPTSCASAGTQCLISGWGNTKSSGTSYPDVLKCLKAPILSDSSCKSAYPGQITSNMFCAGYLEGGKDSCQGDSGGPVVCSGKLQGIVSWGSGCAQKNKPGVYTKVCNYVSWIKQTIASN
# From the text: (§1) The square symbols indicate the disappearance of Compound KC-2, and the triangle symbols depict the appearance of oxycodone, over time under the conditions described in this Example.
# trypsin [4] = biological target: T3, trypsin (Bos taurus, UniProt P00760); assay: as above; format: biochemical, bovine; design: purchased Sigma-Aldrich T8003; host or cells: bovine pancreas; conditions: bovine, trypsin from bovine pancreas, read-out: Pro-drug trypsin half-life, h Average ± sd (converted)
# T3 sequence (P00760 24-246): T2 sequence (P00760 24-246)
# From the text: as §1
# human μ-opioid receptor [5] = biological target: T1, human μ-opioid receptor; assay: cell-based; design: expressed in transfected cells; host or cells: CHO; conditions: agonist response, cAMP (HTRF); recombinant CHO cells; 37° C., 10 min; three separate experiments
# Method: This Example measures the ability of certain compounds of the present disclosure to effect an agonist response when exposed to recombinant human μ-opioid receptor expressed in CHO cells.
# A. and Uhl, G. R. (1994). […] The control reaction included 1 μM DAMGO. The reaction mixtures were incubated at 37° C. for 10 min, and the reaction product was cyclic AMP (cAMP). The samples were submitted to homogeneous time resolved fluorescence (HTRF®). EC50 values (concentration producing a half-maximal specific response) were determined by non-linear regression fit using the Hillplot software.
# [6] = In vitro stability of Compound KC-2 to household chemicals and enzyme preparations; format: physicochemical; conditions: vodka, baking soda, WINDEX, vinegar (RT or 80° C.), GNC Super Digestive, tenderizer, subtilisn (RT); 1 or 24 hr
# Method: Samples were incubated as described and aliquots removed at 1 hr and 24 hr and stabilized by adding each to a solution of 50% or 100% of 85% phosphoric acid solution to achieve a final pH of less than or equal to pH 4. The stabilized aliquots were then diluted 4- to 6-fold with water, vortex-mixed and applied to HPLC.
# [7] = male, Sprague Dawley, rat, in vivo
# [8] = male, Sprague Dawley, rat, in vivo; remark: listed apart in the source
# [9] = biological target: T2, trypsin from bovine pancreas; assay: In vitro trypsin-mediated release of drug from ketone-modified opioid prodrugs KC-3 to KC-6, effect of Compound 109; conditions: 0.761 mM prodrug, 37° C., no trypsin inhibitor
# From the text: (§2) Other reaction and sample treatment conditions were as described above.
# trypsin [10] = biological target: T3, trypsin; assay: as above; conditions: bovine, trypsin from bovine pancreas, h Average ± sd
# From the text: as §2
# [11] = In vitro stability of Compound KC-3 to household chemicals and enzyme preparations; format: physicochemical; conditions: vodka, baking soda, WINDEX, vinegar (RT or 80° C.), GNC Super Digestive, tenderizer, subtilisn (RT); 1 or 24 hr
# Method: Samples were incubated as described. Aliquots were removed at 1 hr and 24 hr and stabilized by adding each to a solution of 50% or 100% of 85% phosphoric acid solution to achieve a final pH of less than or equal to pH 4. The stabilized aliquots were then diluted 4- to 6-fold with water, vortex-mixed and applied to HPLC.
# [12] = In vivo tolerability of Compound KC-3 in rats (IV); conditions: rat, Compound KC-3 97 μmol/kg, tolerated
# Method: Male naïve Sprague-Dawley rats, 4 per dose, were used in the study. Rats were weighed, and then placed under a heat lamp for 15-20 minutes to dilate the lateral tail veins. […] Before dosing, rats were placed in Broome restrainers and the drug was introduced into one of the tail veins using a syringe and needle. […] Blood samples were collected 5 minutes post-dose via the saphenous vein. The rats were observed up to 24 hours.
# [13] = Pharmacokinetics of Compound KC-5 following PO administration to rats; conditions: rat; PO Compound KC-5
# [14] = rat
# [15] = Pharmacokinetics of Compound KC-6 following PO administration to rats; conditions: rat; PO Compound KC-6
# [16] = male, Sprague Dawley, rat, in vivo; remark: listed apart in the source
# [17] = biological target: T2, trypsin from bovine pancreas; assay: In vitro trypsin conversion of prodrugs to hydromorphone and inhibition by trypsin inhibitor; conditions: with trypsin inhibitor 3,089 uM Compound 109
# Method: The reactions were conducted at 37° C. for 24 hr. Samples were collected at specified time points, transferred into 0.5% formic acid in acetonitrile to stop trypsin activity and stored at less than −70° C. until analysis by LC-MS/MS.
# The results are expressed as half-life of prodrug when exposed to trypsin (i.e., Prodrug trypsin half-life) in hours and rate of formation of HM per unit of trypsin.
# [18] = Oral administration of Compound PC-4 and SBTI trypsin inhibitor to rats; conditions: HM in rat plasma, PC-4 20 mg/kg
# [19] = HM in rat plasma, PO, PC-4 20 mg/kg
# [20] = pH 8, Pro-drug trypsin half-life, 0.761 mM prodrug, 241 BAEE U trypsin/mL, 37° C., no trypsin inhibitor
# [21] = male, Sprague Dawley, in vivo, iv, 10 mg/kg
# T1 sequence (P35372 whole entry): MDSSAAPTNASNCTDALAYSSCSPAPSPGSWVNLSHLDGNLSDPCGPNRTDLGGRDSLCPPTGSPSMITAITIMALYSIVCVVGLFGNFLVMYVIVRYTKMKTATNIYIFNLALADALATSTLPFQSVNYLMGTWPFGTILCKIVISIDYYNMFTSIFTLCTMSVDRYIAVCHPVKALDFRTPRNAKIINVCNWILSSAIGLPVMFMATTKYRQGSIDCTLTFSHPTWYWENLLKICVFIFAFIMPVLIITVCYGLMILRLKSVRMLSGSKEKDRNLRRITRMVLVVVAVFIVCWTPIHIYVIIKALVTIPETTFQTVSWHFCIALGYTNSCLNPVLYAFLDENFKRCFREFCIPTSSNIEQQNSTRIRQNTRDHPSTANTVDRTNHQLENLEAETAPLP
compound,measurement,setting,value
"COc1ccc2c3c1O[C@H]1C(OC(=O)N(C)CCNC(=O)[C@H](CCCNC(=N)N)NC(C)=O)=CC[C@@]4(O)[C@@H](C2)N(C)CC[C@]314 [Compound KC-2, Oxycodone 6-(N-methyl-N-(2-N′-acetylarginylamino))ethylcarbamate]",IC50,human μ-opioid receptor [1],22 nM
same,oxycodone plasma concentrations compared to administration of oxycodone,[2],suppressed Cmax and delayed Tmax compared to administration of oxycodone
same,"Rate of oxycodone formation, umols/h/umol trypsin Average ± sd",[3],37.4 ± 0.9 umols/h/umol trypsin
same,half-life at 0.761 mM,"trypsin [4]; pH 8, with Compound 109 (trypsin inhibitor) 2 µM ([…])",4.83 ± 4.92 days
same,half-life at 0.761 mM,"trypsin [4]; pH 8, 0.761 mM KC-2, 0.0228 mg/mL trypsin, 37° C., no trypsin inhibitor",0.235 ± 0.0108 days
same,EC50,human μ-opioid receptor [5],490 nM
same,conversion to oxycodone,[6],less than 10%
same,Compound conc. in CSF,[7],61.9 ng/mL
same,Compound conc. in Plasma,[7],"27,200 ng/mL"
same,Plasma/CSF partitioning coefficient,[7],439
"COc1ccc2c3c1O[C@H]1C(OC(=O)N(C)CCNC(=O)[C@H](CCCNC(=N)N)NC(=O)CC(=O)O)=CC[C@@]4(O)[C@@H](C2)N(C)CC[C@]314 [Compound KC-3, N-{(S)-4-guanidino-1-[2-(methyl-[(5R,9R,13S,14S)-4,5a-epoxy-6,7-didehydro-14-hydroxy-3-methoxy-17-methylmorphinan-6-oxy]carbonyl-amino)-ethylcarbamoyl]-butyl}-malonamic acid]",Compound conc. in CSF,[8],34.1 ng/mL
same,Compound conc. in Plasma,[8],"59,225 ng/mL"
same,Plasma/CSF partitioning coefficient,[8],"1,737"
same,"Rate of oxycodone formation, umol/h/BAEE U Average ± sd",[9]; 241 BAEE U trypsin/mL,0.0684 ± 0.0009 umol/h/BAEE U
same,half-life at 0.761 mM,trypsin [10]; [20],535 ± 115 min
same,half-life at 0.761 mM,"trypsin [10]; pH 8, with Compound 109 (trypsin inhibitor), 2 µM, Pro-drug trypsin half-life, with trypsin inhibitor Compound 109 2 uM",2600 ± 2440 min
same,conversion to oxycodone,[11],less than 10%
same,time to recover to normal activity,[12],≤ 2 min
same,EC50,human μ-opioid receptor [5],1600 nM
"COc1ccc2c3c1O[C@H]1C(OC(=O)N(CCCCCC(=O)O)CCNC(=O)[C@H](CCCNC(=N)N)NC(C)=O)=CC[C@@]4(O)[C@@H](C2)N(C)CC[C@]314 [Compound KC-5, 6-{[2-(2-Acetylamino-5-guanidino-pentanoylamino)-ethyl]-[(5R,9R,13S,14S)-4,5a-epoxy-6,7-didehydro-14-hydroxy-3-methoxy-17-methylmorphinan-6-oxy]-1-enyloxycarbonyl-amino}-hexanoic acid]","Rate of oxycodone formation, umol/h/BAEE U Average ± sd",[9]; 241 BAEE U trypsin/mL,0.135 ± 0.005 umol/h/BAEE U
same,half-life at 0.761 mM,trypsin [10]; [20],72 ± 2.4 min
same,oxycodone plasma concentrations compared to administration of oxycodone,[13],suppressed Cmax and AUC and delayed Tmax compared to administration of oxycodone
same,plasma/CSF partitioning coefficient,"[14]; male, Sprague Dawley, in vivo","1,508"
same,Compound conc. in CSF,[14]; [21],36.4 ng/mL
same,Compound conc. in Plasma,[14]; [21],"54,900 ng/mL"
same,Plasma/CSF partitioning coefficient,[14]; [21],"1,508"
same,relative plasma/CSF partitioning coefficient of prodrug to oxycodone (fold less CSF penetrant),"[14]; IV, 1,508/4.8",about 316 fold
same,EC50,human μ-opioid receptor [5],2000 nM
"COc1ccc2c3c1O[C@H]1C(OC(=O)N(C)C[C@H](NC(=O)[C@H](CCCNC(=N)N)NC(C)=O)C(=O)N(C)CC(=O)O)=CC[C@@]4(O)[C@@H](C2)N(C)CC[C@]314 [Compound KC-6, ({(S)-2-((S)-2-Acetylamino-5-guanidino-pentanoylamino)-3-[(oxycodone-enyloxycarbonyl)-methyl-amino]-propionyl]-methyl-amino)-acetic acid]","Rate of oxycodone formation, umol/h/BAEE U Average ± sd",[9]; 241 BAEE U trypsin/mL,0.0118 ± 0.0042 umol/h/BAEE U
same,"Rate of oxycodone formation, umol/h/BAEE U Average ± sd",[9]; 4815 BAEE U trypsin/mL,0.00571 ± 0.0002 umol/h/BAEE U
same,oxycodone plasma concentrations compared to administration of oxycodone,[15],suppressed Cmax and AUC and delayed Tmax compared to administration of oxycodone
same,EC50,human μ-opioid receptor [5],1800 nM
same,Compound conc. in CSF,[16],74.1 ng/mL
same,Compound conc. in Plasma,[16],"60,400 ng/mL"
same,Plasma/CSF partitioning coefficient,[16],815
same,plasma/CSF partitioning coefficient,[16],815
"CCN(CCNC(=O)[C@H](CCCNC(=N)N)NC(C)=O)C(=O)Oc1ccc2c3c1OC1C(=O)CCC4C(C2)N(C)CCC314 (stereo partly drawn) [Compound PC-4, [2-((S)-2-Acetylamino-5-guanidino-pentanoylamino)-ethyl]-ethyl-carbamic acid hydromorphone ester]","Rate of HM formation, umols/h/umol trypsin Average ± sd",[17],3.27 ± 1.87 umols/h/umol trypsin
same,Cmax (ng/mL HM),"[18]; SBTI 0 mg/kg, 7 rats",7.7 ± 2.3 ng/mL
same,Tmax,"[18]; SBTI 0 mg/kg, 7 rats",2.3 h
same,Cmax (ng/mL HM),"[18]; SBTI 500 mg/kg, 4 rats",7.5 ± 2.1 ng/mL
same,Tmax,"[18]; SBTI 500 mg/kg, 4 rats",6.5 h
same,Cmax (ng/mL HM),"[19]; Compound 101 0 mg/kg, 7 rats",7.7 ± 2.3 ng/mL
same,Tmax,"[19]; Compound 101 0 mg/kg, 7 rats",2.3 h
same,Cmax (ng/mL HM),"[19]; Compound 101 10 mg/kg, 4 rats",4.8 ± 1.4 ng/mL
same,Tmax,"[19]; Compound 101 10 mg/kg, 4 rats",6.0 h
